In assay [1] the test system is C57BL/6 mice, bleomycin-induced pulmonary fibrosis. The assay can be described thus: Bleomycin-induced pulmonary fibrosis model, amount of lung hydroxyproline. It is filed as in vivo. Conditions: 0.3 mg/kg orally once daily, three weeks after intratracheal bleomycin 6 mg/kg, relative to solvent-administration group. An excerpt:
It has been reported that bleomycin administration into the trachea leads to pulmonary fibrosis. Its pathological findings including the hypertrophy and fibrosis of the alveolar wall, increased inflammatory cells, the increased amount of hydroxyproline etc. are similar to clinical idiopathic pulmonary fibrosis, and it has been often used as an experimental model of pulmonary fibrosis (Biochem. Biophys. Res. Comm. 288, 747 (2001)). To C57BL/6 mice (6-week-old, female), bleomycin hydrochloride (Bleo: NIPPON KAYAKU CO., LTD) (6 mg/kg, 25 μl/animal) was injected into the bronchus together with 500 μl of compressed air. Three weeks after administration into the trachea, the amount of hydroxyproline in the lung was determined. 0.3 mg/kg of the test substance was suspended in 0.5% carboxymethyl cellulose sodium, and orally administered once daily. The effect of the compound of the present invention was expressed in the inhibition percentage relative to the increased amount of lung hydroxyproline of the solvent-administration group, and shown in Table 3.

Assay [2] concerns PAI-1 production in human airway epithelial cells (BEAS-2B). Briefly: Activity of inhibiting PAI-1 production using airway epithelial cells (TGF-β stimulated, ELISA). It is filed as cell-based. Conditions: BEAS-2B cells, 24 hours, PAI-1 in culture supernatant by ELISA. The procedure: The effect of a compound on PAI-1 production activity using airway epithelial cells was examined. This reflects PAI-1 concentration in the lung tissue related to fibrosis (lung).
The effect on the amount of PAI-1 produced using human airway epithelial cells (BEAS-2B) was examined. After 0.1 ml each of BEAS-2B cells prepared at 2×10^6 cells/ml was added to a collagen I-coated 96-well plate, preincubated for 24 hours, 0.1 ml of a medium containing […] TGF-β was added thereto and incubated for 24 hours, the amount of PAI-1 in the culture supernatant was determined using an ELISA kit. The test substance was dissolved in dimethyl sulfoxide (final concentration, 0.1% or less), and was prepared at 0.2, 1, 5 and 25 μM using a phosphate buffer, and added after preculturing. The activity of inhibiting PAI-1 production of the compound of the present invention was expressed in terms of the IC50 value and shown in Table 2.
A general note: In an ELISA, binding on a coated surface is turned into a signal by an enzyme label.

As to “5-(3-(cyclopropylmethyl)-4-methoxyphenyl)-2-methylpyridazin-3-one [Compound No. 2]”, in assay [1], the “Inhibition percentage relative to the increased amount of pulmonary hydroxyproline” value came to 66%. For the same compound, in assay [2], the midpoint of inhibition, the IC50, lay at 16.8 µM.
Take “5-(4-methoxy-3-(tetrahydrofuranyloxy)phenyl)-2-phenylpyridazin-3-one [Compound No. 9]”: the “Inhibition percentage relative to the increased amount of pulmonary hydroxyproline” value in assay [1] is recorded as 117%.
Turning to `COc1ccc(-c2cn[nH]c(=O)c2)cc1OC` [Compound No. 1, 5-(3,4-dimethoxyphenyl)pyridazin-3-one], in assay [2] (Homo sapiens), the IC50 (usually the concentration that gives 50% inhibition) was 14.1 µM.
For the compound `COc1ccc(-c2cnn(C)c(=O)c2)cc1OC1CCCC1` [Compound No. 3, 5-(3-(cyclopentyloxy)-4-methoxyphenyl)-2-methylpyridazin-3-one], the “Inhibition percentage relative to the increased amount of pulmonary hydroxyproline” value in assay [1] was found to be 68%. The same compound yielded a concentration for half-maximal inhibition (IC50) in assay [2] (Homo sapiens) of 5.8 µM.
As for `COc1ccc(-c2cn[nH]c(=O)c2)cc1OC1CCOC1` (centres unmarked) [Compound No. 4, 5-(4-methoxy-3-(3-tetrahydrofuranyloxy)phenyl)pyridazin-3-one], in assay [2] (Homo sapiens), the half-inhibitory concentration (IC50) was 8.4 µM.
With `COc1ccc(-c2cnn(-c3ccccc3)c(=O)c2)cc1OC1CCCC1` [Compound No. 6, 5-(3-(cyclopentyloxy)-4-methoxyphenyl)-2-phenylpyridazin-3-one], the “Inhibition percentage relative to the increased amount of pulmonary hydroxyproline” value in assay [1] is 84%.
Compound `COc1ccc(-c2cnn(C)c(=O)c2)cc1OC1CCOC1` (centres unmarked) [Compound No. 12, 5-(4-methoxy-3-(3-tetrahydrofuranyloxy)phenyl)-2-methylpyridazin-3-one] returned a half-maximal inhibitory concentration (IC50) in assay [2] (Homo sapiens) of 4 µM.
On to `COc1ccc(-c2cnn(C)c(=O)c2)cc1O[C@H]1CCOC1` [Compound No. 16, (S)-5-(4-methoxy-3-(3-tetrahydrofuranyloxy)phenyl)-2-methylpyridazin-3-one], for which, in assay [2] (Homo sapiens), the IC50 turned out to be 23.2 µM.
Regarding `COc1ccc(-c2cnn(Cc3ccc4ccccc4n3)c(=O)c2)cc1OC1CCCC1` [Compound No. 19, 5-(3-(cyclopentyloxy)-4-methoxyphenyl)-2-(2-quinolylmethyl)pyridazin-3-one], in assay [1], the “Inhibition percentage relative to the increased amount of pulmonary hydroxyproline” value came out at 132%.

(Values after patent US8106053B2, “5-phenyl-3-pyridazinone derivative” (Kowa Company, Ltd., priority 2007, dated 2012).)
